Experimental data published in ChEMBL document CHEMBL1201862, “PubChem BioAssay data set” (2004).
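A five-concentration, 48-hour dose response in 96-well plates underlies each endpoint, interpolated linearly between surrounding concentrations. GI50: concentration for 50% inhibition of growth.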 Active and inactive are the calls of the source. Rule as the data show it: active = GI50 up to about 1.1 µM and inactive = higher.

How the values were obtained:
Test in all cases: NCI anticancer screen, dose series, 48 h
Malme-3M = system: Malme-3M
K562 = system: K562
HOP-62 = system: HOP-62
NCI-H23 = system: NCI-H23
CCRF-CEM = system: CCRF-CEM
UACC-62 = system: UACC-62
TK-10 = system: TK-10
HCC 2998 = system: HCC 2998
SK-MEL-2 = system: SK-MEL-2
Hs-578T = system: Hs-578T
CAKI-1 = system: CAKI-1
SK-OV-3 = system: SK-OV-3
SF-539 = system: SF-539
SK-MEL-5 = system: SK-MEL-5
MCF7 = system: MCF7
SF-295 = system: SF-295
MOLT-4 = system: MOLT-4
SNB-75 = system: SNB-75
LOX IMVI = system: LOX IMVI

Measured: GI50

O=C1/C(=C\c2ccc(F)cc2)CCOc2c1ccc1ccccc21
inactive: Malme-3M 16.5 µM | K562 6.68 µM | HOP-62 26.8 µM | NCI-H23 12.8 µM | CCRF-CEM 5.82 µM | UACC-62 37.2 µM | TK-10 24.4 µM | HCC 2998 3.48 µM | SK-MEL-2 45.7 µM | Hs-578T 40.3 µM | CAKI-1 21.1 µM | SK-OV-3 36.6 µM | SF-539 21.9 µM | SK-MEL-5 21.2 µM | MCF7 10.4 µM | SF-295 22 µM | MOLT-4 7.67 µM | SNB-75 12.4 µM

CC12CC(c3ccccc3O1)C(C(=O)Nc1nccs1)C(=O)N2 (stereo not given)
inactive: Malme-3M > 100 µM | K562 > 100 µM | HOP-62 > 100 µM | NCI-H23 > 100 µM | CCRF-CEM > 100 µM | UACC-62 > 100 µM | TK-10 > 100 µM | HCC 2998 > 100 µM | SK-MEL-2 > 100 µM | Hs-578T > 100 µM | CAKI-1 > 100 µM | SK-OV-3 > 100 µM | SK-MEL-5 > 100 µM | MCF7 > 100 µM | LOX IMVI > 100 µM | SF-295 > 100 µM | MOLT-4 > 100 µM | SNB-75 > 100 µM

Sc1nn2c(Cc3ccccc3)nnc2s1
inactive: Malme-3M > 100 µM | K562 > 100 µM | HOP-62 > 100 µM | NCI-H23 > 100 µM | CCRF-CEM > 100 µM | UACC-62 > 100 µM | TK-10 > 100 µM | HCC 2998 > 100 µM | SK-MEL-2 > 100 µM | Hs-578T > 100 µM | CAKI-1 > 100 µM | SK-OV-3 > 100 µM | SF-539 > 100 µM | SK-MEL-5 > 100 µM | MCF7 > 100 µM | LOX IMVI > 100 µM | SF-295 > 100 µM | MOLT-4 > 100 µM

O=c1c(O)c(-c2ccc(O)cc2O)oc2cc(O)cc(O)c12 [MORIN]
inactive: Malme-3M > 100 µM | K562 > 100 µM | HOP-62 > 100 µM | NCI-H23 > 100 µM | CCRF-CEM > 100 µM | TK-10 33.4 µM | HCC 2998 > 100 µM | SK-MEL-2 > 100 µM | Hs-578T > 100 µM | CAKI-1 > 100 µM | SF-539 > 100 µM | SK-MEL-5 > 100 µM | MCF7 > 100 µM | LOX IMVI > 100 µM | SF-295 > 100 µM | SNB-75 > 100 µM
